In patent publication US20240027453A1, “METHOD FOR DETECTION AND QUANTITATIVE MONITORING OF INFECTIONS WITH HERPESVIRUSES” (The Trustees of Princeton University, priority 2020, published 2024):
Like-named read-outs stand apart in the source and are kept apart here.

Test system: HCMV
Type: cell-based
Description: In example herpesvirus PRM assay methods shown herein, cell pellets were lysed in 2% SDS, 100 mM NaCl, 0.5 mM EDTA, 50 mM Tris, pH 8.2, and 50 μg of protein was reduced and alkylated with 25 mM TCEP and 50 mM CAM respectively for 20 min at 70° C. Proteins were then precipitated via methanol chloroform precipitation (Wessel & Flugg, Anal Biochem. 138(1):141-143, 1984), resuspended in 50 mM HEPES, pH 8.2 and digested overnight with trypsin (50:1 protein:enzyme w/w ratio). Digested peptides were desalted by SDB-RPS StageTip as previously described (Lum et al., Cell Syst., 7(6):[…], 2018; Greco et al., Methods Mol Biol 1410:39-63, 2016; Federspiel & Cristea, Methods Mol Biol., 1977:115-143, 2019).
Peptides (1.0 μg on column) were analyzed by LC-MS/MS using a Dionex Ultimate 3000 UHPLC coupled online to an EASYSpray ion source and a Q Exactive HF. Peptides were separated on an EASYSpray C18 column (75 μm×25 cm) heated to 50° C. using a linear gradient of 5% B to 32% B over 60 min at a flow rate of 250 nL/min and were ionized at 1.7 kv. Mobile phase A consisted of 0.1% FA in H2O and mobile phase B consisted of 0.1% FA, 2.9% H2O in ACN.
The PRM method was controlled by a peptide inclusion list with retention time windows of 6 min for selected precursor ions.
The PRM assay was developed and analyzed using the open-source software Skyline (Maclean et al., Bioinformatics 26(7):966-968, 2010). Summed area under the curve of 3-4 transitions per peptide was used for quantitation. Targeted peptides were normalized to host protein loading control peptides. Peptide values for each sample were scaled to the average of each peptide across all runs. The average of multiple peptides was used as the inferred value for the protein measurement when more than one peptide was quantified (Federspiel et al., PLoS Biol. 17(9):e3000437. Doi: 10.1371/journal.pbio.3000437). PRM quantitation data were graphed using the Python Seaborn and Matplotlib libraries.
MRC5 primary human fibroblasts (HFs) (ATCC CCL-171) were used as the model system for HSV-1 and HCMV infections and were cultured in complete growth medium (DMEM supplemented with 10% fetal bovine serum and 1% penicillin-streptomycin antibiotics) at 37° C. and 5% CO2. iSLK.219 cells harboring latent KSHV (a gift from Dr. Britt Glaunsinger, University of California, Berkeley) were grown in complete growth medium supplemented with 500 μg/ml hygromycin (ThermoFisher Scientific, 10687010) at 37° C. and 5% CO2. All cells were used for experiments within a maximum of 10 passages.
Wild type HSV-1 strain 17+ (a gift from Beate Sodeik, Hannover Medical School, Hannover, Germany) was propagated as previously described (Diner et al., 2015). Briefly, PO stocks were generated by electroporating pBAC-HSV-1 into U-2 OS cells. […] In a similar manner, wild type HCMV strain AD169 was produced from BAC electroporation into HFs and working stocks were propagated by infecting HFs at a low level. In both cases, cell-associated virus was released by sonication, combined with supernatant virus, then concentrated by ultracentrifugation (20,000 rpm, 2 hours, 4° C. with SW28 swinging bucket rotor [Beckman Coulter]) over a 10% ficoll (HSV-1) or 20% sorbitol (HCMV) cushion. Virus stock titers were determined by plaque assay for HSV-1 or tissue culture infectious dose (TCID50) for HCMV and infections were performed at a multiplicity of infection (MOI) of 3.
12 hours prior to virus infection or reactivation, cells were treated with either the small molecule drug or DMSO/PBS control at an equivalent volume. […] For infection cycles lasting longer than 24 hours, small molecule drugs were re-added to the cell culture medium every 24 hours. Upon collection, cells were rinsed with PBS, scraped into a microcentrifuge tube, pelleted by centrifugation, and rinsed again with PBS.

In the case of Nc1ccn(C[C@@H](CO)OCP(=O)(O)O)c(=O)n1 [CDV, cidofovir], the “HCMV late gene expression” value is reported as “reduction”, the “HCMV protein levels across all temporal classes of gene expression” value (1 μM) is reported as “substantial decreases” and the “impact on HCMV IE genes compared to other gene classes” value (1 μM) is reported as “relatively less impacted”. The “decrease of HCMV protein UL54” value (1 μM, across all time points) was “less than 20%”, the “decrease in HCMV protein levels compared to PBS control” value (1 μM, by 72 HPI, in more than 85% of the proteins monitored) was “at least 35%” and the “decrease in abundance of HCMV IE protein UL122” value (1 μM, by 120 HPI) was ~70%. For the same molecule, the “DBP (P17147) protein, numerical value of heatmap FIG. 6C” value (DE, timepoint 24) was 0.04283, the “HELI (P16736) protein, numerical value of heatmap FIG. 6C” value (DE, timepoint 24) was 0.1024 and the “NEC2 (P16791) protein, numerical value of heatmap FIG. 6C” value (DE, timepoint 24) was 0.0159. For the same molecule, the “RIR1 (P16782) protein, numerical value of heatmap FIG. 6C” value (DE, timepoint 24) was 0.04961, the “UL26 (P16762) protein, numerical value of heatmap FIG. 6C” value (DE, timepoint 24) was 0.04954 and the “UL32 (P08318) protein, numerical value of heatmap FIG. 6C” value (DE, timepoint 24) was 0.01616. The “UL34 (P16812) protein, numerical value of heatmap FIG. 6C” value (DE, timepoint 24) was 0.05376, the “UL38 (P16779) protein, numerical value of heatmap FIG. 6C” value (DE, timepoint 24) was 0.5007 and the “UL44 (P16790) protein, numerical value of heatmap FIG. 6C” value (DE, timepoint 24) was 0.0325. The “UL54 (P08546) protein, numerical value of heatmap FIG. 6C” value (DE, timepoint 24) was 0.2154, the “UL71 (P16823) protein, numerical value of heatmap FIG. 6C” value (DE, timepoint 24) was 0.2978 and the “UL78 (P16751) protein, numerical value of heatmap FIG. 6C” value (DE, timepoint 24) was 0.1834. The “UL84 (P16727) protein, numerical value of heatmap FIG. 6C” value (DE, timepoint 24) was 0.0827, the “UL96 (P16787) protein, numerical value of heatmap FIG. 6C” value (DE, timepoint 24) was 0.339 and the “UL97 (P16788) protein, numerical value of heatmap FIG. 6C” value (DE, timepoint 24) was 0.1685. The “UL98 (P16789) protein, numerical value of heatmap FIG. 6C” value (DE, timepoint 24) was 0.1785, the “UL102 (P16827) protein, numerical value of heatmap FIG. 6C” value (DE, timepoint 24) was 0.2917 and the “UL112/UL113 (P17151) protein, numerical value of heatmap FIG. 6C” value (DE, timepoint 24) was 0.3345. For the same molecule, the “UL114 (P16769) protein, numerical value of heatmap FIG. 6C” value (DE, timepoint 24) was 0.3025, the “UL119/UL118 (P16739) protein, numerical value of heatmap FIG. 6C” value (DE, timepoint 24) was 0.07541 and the “UL128 (P16837) protein, numerical value of heatmap FIG. 6C” value (DE, timepoint 24) was 0.1472. For the same molecule, the “US8 (P09730) protein, numerical value of heatmap FIG. 6C” value (DE, timepoint 24) was 0.3317, the “US9 (P09729) protein, numerical value of heatmap FIG. 6C” value (DE, timepoint 24) was 0.2308 and the “US12 (P09721) protein, numerical value of heatmap FIG. 6C” value (DE, timepoint 24) was 0.6397. For the same molecule, the “US13 (P09720) protein, numerical value of heatmap FIG. 6C” value (DE, timepoint 24) was 0.2174, the “US14 (P09719) protein, numerical value of heatmap FIG. 6C” value (DE, timepoint 24) was 0.1903 and the “US18 (P69334) protein, numerical value of heatmap FIG. 6C” value (DE, timepoint 24) was 0.3161. The “US22 (P09722) protein, numerical value of heatmap FIG. 6C” value (DE, timepoint 24) was 0.1701, the “US23 (P09701) protein, numerical value of heatmap FIG. 6C” value (DE, timepoint 24) was 0.3435 and the “US24 (P09700) protein, numerical value of heatmap FIG. 6C” value (DE, timepoint 24) was 0.2973. The “gB (P06473) protein, numerical value of heatmap FIG. 6C” value (DE, timepoint 24) was 0.05133, the “sp|P09710|IR01_HCMVA (P09710) protein, numerical value of heatmap FIG. 6C” value (DE, timepoint 24) was 0.1514 and the “DBP (P17147) protein, numerical value of heatmap FIG. 6C” value (DE, timepoint 48) was 0.2386. For the same molecule, the “HELI (P16736) protein, numerical value of heatmap FIG. 6C” value (DE, timepoint 48) was 0.4106, the “NEC2 (P16791) protein, numerical value of heatmap FIG. 6C” value (DE, timepoint 48) was 0.08567 and the “RIR1 (P16782) protein, numerical value of heatmap FIG. 6C” value (DE, timepoint 48) was 0.1065. The “TRM1 (P16724) protein, numerical value of heatmap FIG. 6C” value (DE, timepoint 48) was 0.1188, the “UL4 (P17146) protein, numerical value of heatmap FIG. 6C” value (DE, timepoint 48) was 0.07447 and the “UL26 (P16762) protein, numerical value of heatmap FIG. 6C” value (DE, timepoint 48) was 0.1073. For the same molecule, the “UL32 (P08318) protein, numerical value of heatmap FIG. 6C” value (DE, timepoint 48) was 0.03113, the “UL34 (P16812) protein, numerical value of heatmap FIG. 6C” value (DE, timepoint 48) was 0.1018 and the “UL38 (P16779) protein, numerical value of heatmap FIG. 6C” value (DE, timepoint 48) was 0.7494. For the same molecule, the “UL44 (P16790) protein, numerical value of heatmap FIG. 6C” value (DE, timepoint 48) was 0.09556, the “UL48 (P16785) protein, numerical value of heatmap FIG. 6C” value (DE, timepoint 48) was 0.04333 and the “UL54 (P08546) protein, numerical value of heatmap FIG. 6C” value (DE, timepoint 48) was 0.6243.
